In ChEMBL document CHEMBL5226308, “Amide-Amine Replacement in Indole-2-carboxamides Yields Potent Mycobactericidal Agents with Improved Water Solubility” (ACS Med Chem Lett, 2021):
≈ marks a conversion by molar mass, not a printed value. Calls of active or inactive are those of the source. The calls are words filed in the database; no cut-off is given here.

What was measured:
[1] = system: Mycobacterium tuberculosis variant bovis; test: Antimycobacterial activity against Mycobacterium bovis BCG ATCC 35734 assessed as inhibition of bacterial growth incubated for 5 days in 7H9 standard media by broth dilution method; type: functional; details: BCG ATCC 35734, 120 h, time 5 day
[2] = system: Mycobacterium tuberculosis variant bovis; test: Myco-bactericidal activity against Mycobacterium bovis BCG ATCC 35734 assessed as inhibition of bacterial colony formation incubated for 5 days by agar plate method; type: functional; details: BCG ATCC 35734, 120 h, time 5 day, read-out: MBC99.9
[3] = system: Mycobacterium tuberculosis variant bovis; test: Disruption of proton motive force in Mycobacterium bovis BCG ATCC 35734 assessed as loss in mitochondrial membrane potential by measuring decline in fluorescence ratio at 4XMIC90 measured after >=12 hrs by DiOC2 based fluorescence analysis; type: functional, organism-based
[4] = system: Mycobacterium tuberculosis variant bovis; test: Antimycobacterial activity against Mycobacterium bovis BCG ATCC 35734 assessed as inhibition of bacterial growth incubated for 5 days in 7H9 medium with addition of 10% FBS by broth dilution method; type: functional; details: BCG ATCC 35734, 120 h, time 5 day
[5] = system: Mycobacterium tuberculosis variant bovis; test: Antimycobacterial activity against Mycobacterium bovis BCG ATCC 35734 assessed as inhibition of bacterial growth incubated for 5 days in 7H9 medium with omission of glycerol by broth dilution method; type: functional; details: BCG ATCC 35734, 120 h, time 5 day

Row | SMILES | MIC90 [1] | other results
1 | O=C(NC1CCCCCCC1)c1cc2ccc(F)cc2[nH]1 | 0.18 µM (≈ 0.0519 µg/mL) | –
2 | FC(F)(F)c1ccc2cc(CNC3CCCCCCC3)sc2c1 | 0.78 µM (≈ 0.266 µg/mL) | –
3 | c1ccc2[se]c(CNC3CCCCC3)cc2c1 | > 35 µM | –
4 | Brc1ccc2cc(CNC3CCCCCCC3)[nH]c2c1 | 0.16 µM (≈ 0.0536 µg/mL) | –
5 | O=C(NC1CCCCCCC1)c1cc2ccccc2[nH]1 | 0.52 µM (≈ 0.141 µg/mL) | –
6 | NNC(=O)c1ccncc1 [ISONIAZID] | – | MBC [2]: 10 µM (≈ 1.37 µg/mL)
7 | O=C(NC1CCCCCCC1)c1cc2cc(Br)ccc2[nH]1 | 1.1 µM (≈ 0.384 µg/mL) | –
8 | O=C(NC1CCCCCCC1)c1cc2ccccc2[se]1 | 0.7 µM (≈ 0.234 µg/mL) | Activity [3]: Active
9 | O=C(NC1CCCCCCC1)c1cc2ccc(C(F)(F)F)cc2[se]1 | 1.8 µM (≈ 0.724 µg/mL) | –
10 | O=[N+]([O-])c1ccc2[nH]c(CNC3CCCCCCC3)cc2c1 | 0.69 µM (≈ 0.208 µg/mL) | –
11 | O=C(NC1CCCCCCC1)c1cc2ccc(C(F)(F)F)cc2[nH]1 | 0.04 µM (≈ 0.0135 µg/mL) | MBC [2]: 0.08 µM (≈ 0.0271 µg/mL); MIC50 [4]: 0.02 µM (≈ 0.00677 µg/mL); MIC90 [4]: 0.08 µM (≈ 0.0271 µg/mL); Activity [3]: Active; MIC50 [5]: 0.01 µM (≈ 0.00338 µg/mL); MIC50 [1]: 0.02 µM (≈ 0.00677 µg/mL)
12 | O=C(NC1CCCCCCC1)c1cc2cc(OCc3ccccc3)ccc2[nH]1 | 0.17 µM (≈ 0.064 µg/mL) | –
13 | O=C(NC1CCCCCCC1)c1cc2ccc(OCc3ccccc3)cc2[nH]1 | 0.07 µM (≈ 0.0264 µg/mL) | –
14 | Clc1ccc2cc(CNC3CCCCCCC3)[nH]c2c1 | 0.1 µM (≈ 0.0291 µg/mL) | –
15 | O=C(NC1CCCCCCC1)c1cc2ccc(O)cc2[nH]1 | 11 µM (≈ 3.15 µg/mL) | –
16 | Cc1cc(C)c2cc(CNC3CCCCCCC3)[nH]c2c1 | 0.25 µM (≈ 0.0711 µg/mL) | –
17 | FC(F)(F)c1ccc2cc(CNC3CCCCC3)[nH]c2c1 | 1.1 µM (≈ 0.326 µg/mL) | –
18 | O=C(NC1CCCCCCC1)c1cc2ccc(Br)cc2[se]1 | 0.78 µM (≈ 0.322 µg/mL) | –
19 | O=C(NC1CCCCC1)c1cc2ccccc2s1 | > 50 µM | –
20 | O=C(NC1CCCCCCC1)c1cc2ccc(Br)cc2s1 | 0.8 µM (≈ 0.293 µg/mL) | –

Row | SMILES | MIC90 [1] | other results
21 | Brc1ccc2cc(CNC3CCCCCCC3)[se]c2c1 | 0.54 µM (≈ 0.216 µg/mL) | –
22 | c1ccc2[se]c(CNC3CCCCCCC3)cc2c1 | 2.1 µM (≈ 0.673 µg/mL) | Activity [3]: Active
23 | O=C(NC1CCCCC1)c1cc2ccccc2[se]1 | > 50 µM | –
24 | c1ccc2sc(CNC34CC5CC(CC(C5)C3)C4)cc2c1 | 3.6 µM (≈ 1.07 µg/mL) | –
25 | O=C(NC1CCCCCCC1)c1cc2cc([N+](=O)[O-])ccc2[nH]1 | 0.41 µM (≈ 0.129 µg/mL) | –
26 | O=C(NC1CCCCCC1)c1cc2ccc(C(F)(F)F)cc2[nH]1 | 0.21 µM (≈ 0.0681 µg/mL) | –
27 | O=C(NC1CCCCCC1)c1cc2ccccc2s1 | 3 µM (≈ 0.82 µg/mL) | –
28 | O=C(NC1CCCCCCC1)c1cc2ccc(Cl)cc2[nH]1 | 0.11 µM (≈ 0.0335 µg/mL) | –
29 | c1ccc2[se]c(CNC34CC5CC(CC(C5)C3)C4)cc2c1 | 2.7 µM (≈ 0.93 µg/mL) | –
30 | c1ccc2sc(CNC3CCCCCCC3)cc2c1 | 3.4 µM (≈ 0.93 µg/mL) | Activity [3]: Active
31 | Cc1cc(C)c2cc(C(=O)NC3CCCCCCC3)[nH]c2c1 | 0.04 µM (≈ 0.0119 µg/mL) | –
32 | O=C(NC12CC3CC(CC(C3)C1)C2)c1cc2ccccc2s1 | 0.9 µM (≈ 0.28 µg/mL) | –
33 | O=C(NC1CCCCCCC1)c1cc2cc(Cl)ccc2[nH]1 | 0.8 µM (≈ 0.244 µg/mL) | –
34 | O=C(NC1CCCCCCC1)c1cc2cc(F)ccc2[nH]1 | 0.61 µM (≈ 0.176 µg/mL) | –
35 | O=C(NC1CCCCCCC1)c1cc2ccc(C(F)(F)F)cc2s1 | 0.4 µM (≈ 0.142 µg/mL) | –
36 | O=C(NC12CC3CC(CC(C3)C1)C2)c1cc2ccccc2[se]1 | 1 µM (≈ 0.358 µg/mL) | –
37 | COc1ccc2[nH]c(CNC3CCCCCCC3)cc2c1 | 1.5 µM (≈ 0.43 µg/mL) | –
38 | c1ccc2[se]c(CNC3CCCCCC3)cc2c1 | 5 µM (≈ 1.53 µg/mL) | –
39 | Clc1ccc2[nH]c(CNC3CCCCCCC3)cc2c1 | 0.22 µM (≈ 0.064 µg/mL) | –
40 | O=C(NC1CCCCCC1)c1cc2ccccc2[se]1 | 2.7 µM (≈ 0.865 µg/mL) | –

Row | SMILES | MIC90 [1] | other results
41 | Brc1ccc2[nH]c(CNC3CCCCCCC3)cc2c1 | 0.74 µM (≈ 0.248 µg/mL) | –
42 | c1ccc2sc(CNC3CCCCC3)cc2c1 | > 45 µM | –
43 | c1ccc(COc2ccc3[nH]c(CNC4CCCCCCC4)cc3c2)cc1 | 0.31 µM (≈ 0.112 µg/mL) | –
44 | c1ccc2[nH]c(CNC3CCCCCCC3)cc2c1 | 0.75 µM (≈ 0.192 µg/mL) | –
45 | COc1ccc2cc(CNC3CCCCCCC3)[nH]c2c1 | 1.2 µM (≈ 0.344 µg/mL) | –
46 | COc1ccc2[nH]c(C(=O)NC3CCCCCCC3)cc2c1 | 0.65 µM (≈ 0.195 µg/mL) | –
47 | Fc1ccc2cc(CNC3CCCCCCC3)[nH]c2c1 | 0.43 µM (≈ 0.118 µg/mL) | –
48 | c1ccc2sc(CNC3CCCCCC3)cc2c1 | 5 µM (≈ 1.3 µg/mL) | –
49 | Fc1ccc2[nH]c(CNC3CCCCCCC3)cc2c1 | 0.33 µM (≈ 0.0905 µg/mL) | –
50 | COc1ccc2cc(C(=O)NC3CCCCCCC3)[nH]c2c1 | 1.1 µM (≈ 0.33 µg/mL) | –
51 | FC(F)(F)c1ccc2cc(CNC3CCCCCCC3)[nH]c2c1 | 0.08 µM (≈ 0.026 µg/mL) | MBC [2]: 0.16 µM (≈ 0.0519 µg/mL); MIC50 [4]: 0.07 µM (≈ 0.0227 µg/mL); MIC90 [4]: 0.16 µM (≈ 0.0519 µg/mL); Activity [3]: Active; MIC50 [5]: 0.04 µM (≈ 0.013 µg/mL); MIC50 [1]: 0.04 µM (≈ 0.013 µg/mL)
52 | O=C(NC1CCCCCCC1)c1cc2ccc(Br)cc2[nH]1 | 0.06 µM (≈ 0.021 µg/mL) | –
53 | O=C(NC1CCCCCCC1)c1cc2ccccc2s1 | 0.5 µM (≈ 0.144 µg/mL) | Activity [3]: Active
54 | FC(F)(F)c1ccc2cc(CNC3CCCCCCC3)[se]c2c1 | 2 µM (≈ 0.777 µg/mL) | –
55 | O=C(NC1CCCCCCC1)c1cc2cc(O)ccc2[nH]1 | 48 µM (≈ 13.7 µg/mL) | –
56 | NC(=O)c1cc2ccccc2s1 | > 50 µM | –
57 | O=C(NC1CCCCC1)c1cc2ccc(C(F)(F)F)cc2[nH]1 | 1.6 µM (≈ 0.497 µg/mL) | –
58 | Brc1ccc2cc(CNC3CCCCCCC3)sc2c1 | 2.2 µM (≈ 0.775 µg/mL) | –
